System: Mouse adipocyte precursors (3T3-L1)
Test: Inhibition of insulin-induced adipocyte differentiation, acetic acid (14C-CH3COOH) incorporation activity as index
Assay type: cell-based
Conditions: 3T3-L1 differentiation into adipocytes; compound added with insulin; FIG. 4
Procedure: Whether Calea extract solution has an inhibitory activity on adipocyte differentiation induced by the addition of insulin was investigated. First, the aerial portion of Calea (170 g) was ground, and extracted by heated reflux using acetone (24 hours×2 times) to produce Calea extract solution. The extracted solution was filtered, and then concentrated under reduced pressure to yield a concentrated extract. Mouse adipocyte precursors (3T3-L1) obtained from Human Science Research Resources Bank was used as the adipocyte in the present experiment. Normal successive cultivation was performed using Dulbecco's modified Eagle MEM medium containing 10% calf serum (CS) at 37° C. in the presence of 5% CO2. […]
In the system where acetic acid incorporation activity was used as an index, first the cells were placed into a 24-well plate at a density of 4.2×10^4 cell/well. […] Using a liquid scintillation counter, radioactivity of the isopropanol fraction (adipose component) was measured. […] Then, protein quantification was performed according to the Bradford dye-binding method. […]

SMILES	incorporation inhibitory activity (acetic acid incorporation), result in words
C=C(C)C(=O)O[C@H]1[C@H]2C(=C)C(=O)O[C@@H]2C[C@@H](C)[C@@H]2O[C@@H]2C(=O)[C@@](C)(O)[C@@H]1OC(=O)C(=C)C [compound 6]	high incorporation inhibitory activity
C=C(C)C(=O)O[C@H]1[C@H]2C(=C)C(=O)O[C@@H]2C[C@@H](C)/C=C\C(=O)[C@@](C)(O)[C@@H]1OC(=O)C(=C)C [compound 11]	high incorporation inhibitory activity
